Measured values as given in ChEMBL document CHEMBL5614416, “Discovery of novel thiophene[3,2-d]pyrimidine-based tubulin inhibitors with enhanced antitumor efficacy for combined use with anti-pd-l1 immunotherapy in melanoma” (Eur J Med Chem, 2024).
pIC50: −log10 of the molar value.

What was measured:
[1] = system: NCI-H23; assay: Antiproliferative activity against human NCI-H23 cells incubated for 48 hrs by MTT assay; format: functional, cell-based; conditions: NCI-H23, 48 h
[2] = system: B16-F10; assay: Induction of cell cycle arrest in mouse B16-F10 cells assessed as accumulation of cells at S phase at 1 nM incubated for 12 hrs by flow cytometry (reference value: 30.5 %); format: functional
[3] = system: B16-F10; assay: Induction of cell cycle arrest in mouse B16-F10 cells assessed as accumulation of cells at G2 phase at 1 nM incubated for 12 hrs by flow cytometry (reference value: 13.6 %); format: functional
[4] = system: B16-F10; assay: Induction of apoptosis in mouse B16-F10 cells assessed as viable cells at 1 nM incubated for 12 hrs by Annexin V-FITC/PI staining based flow cytometry (reference value: 93.6 %); format: functional; conditions: read-out: Activity
[5] = system: MCF7; assay: Inhibition of cell migration in human MCF7 cells assessed as reduction in wound closure incubated for 24 hrs by wound healing assay; format: functional, cell-based
[6] = Toxicity in C57 mouse xenografted with mouse B16-F10 cells assessed as monocytes count at 7 mg/kg, ip qd for 12 days by biochemical analysis (reference value: 0.080 to 0.610 10^9/L); format: organism-based; conditions: in vivo, 288 h, time 12 day
[7] = Toxicity in C57 mouse xenografted with mouse B16-F10 cells assessed as PCT level at 3.5 mg/kg, ip qd for 12 days in presence of NP-19 by biochemical analysis (reference value: 0.425 to 5.300); format: organism-based; conditions: in vivo, 288 h, time 12 day

Cc1nc(N(C)c2ccc3c(ccn3C)c2)c2sccc2n1
pIC50 [1]: 8.05
Activity [2]: 22.3%
Activity [3]: 61.9%
viability at 0.001 µM [4]: 77.1%
inhibition [5]: Dose-Dependent Effect
Activity [6]: 0.01 10^9/L
Activity [7]: 0.179
